From ChEMBL document CHEMBL1127373 (J Med Chem, 1994)

Biological target: Neuronal acetylcholine receptor
Assay: Tested for the binding affinity against neuronal nicotinic acetylcholine receptors from whole rat brain

Row | Structure (SMILES) | Ki
1 | CC[C@H]1C[C@@H](c2cccnc2)N(C)C1 | 0.0502 µM
2 | C[C@H]1CC[C@@H](c2cccnc2)N1C | 0.0349 µM
3 | CN1C[C@@H](CF)C[C@H]1c1cccnc1 | 0.0111 µM
4 | CN1[C@H](c2ccccc2)CC[C@H]1c1cccnc1 | 3.35 µM
5 | CN1C[C@@H](O)C[C@H]1c1cccnc1 | 0.0276 µM
6 | C[C@@H]1CC[C@@H](c2cccnc2)N1C | 1.21 µM
7 | CN1C[C@@H](CO)C[C@H]1c1cccnc1 | 0.158 µM
8 | CN1CCC(CF)[C@H]1c1cccnc1 (some centres not stated) | 0.0985 µM
9 | COCC1CCN(C)[C@@H]1c1cccnc1 (some centres not stated) | 2.03 µM
10 | CSC[C@H]1C[C@@H](c2cccnc2)N(C)C1 | 0.493 µM
11 | CN1C[C@@H](OS(C)(=O)=O)C[C@H]1c1cccnc1 | 0.364 µM
12 | COC[C@H]1C[C@@H](c2cccnc2)N(C)C1 | 0.51 µM
13 | CN1C[C@H](C#N)C[C@H]1c1cccnc1 | 0.082 µM
14 | CCCC[C@@H]1CC[C@@H](c2cccnc2)N1C | 1.38 µM
15 | CN1CCC(CO)[C@H]1c1cccnc1 (some centres not stated) | 0.619 µM
16 | CO[C@H]1C[C@@H](c2cccnc2)N(C)C1 | 0.0366 µM
17 | CN1C[C@@H](CC#N)C[C@H]1c1cccnc1 | 0.052 µM
18 | CC1CN(C)[C@H](c2cccnc2)C1C (some centres not stated) | 0.0964 µM
19 | CC(=O)O[C@H]1C[C@@H](c2cccnc2)N(C)C1 | 0.103 µM
20 | CN1C[C@@H](Cc2ccccc2)C[C@H]1c1cccnc1 | 0.119 µM
21 | CN1C[C@H](CO)C[C@H]1c1cccnc1 | 0.294 µM
22 | CN1[C@@H](c2ccccc2)CC[C@H]1c1cccnc1 | 1.24 µM
